Experimental data taken from PubChem BioAssay AID2305 (GlaxoSmithKline (GSK), 2010).

Tested on: P. falciparum 3D7 growth, pLDH absorbance
Experiment: blood-stage malaria parasite growth potency – strain 3D7, dose response (AID 2305)

Compound	IC50 [nM]
COc1cc(OC)nc(C(Sc2ccc(NC(=O)c3cccs3)cc2)c2ccccc2)n1 (stereo unspecified)	60
O=C(/C=C/c1ccc(Cl)c(Cl)c1)NCCCCCN1CCC(NC(=O)Nc2cccc(Cl)c2F)CC1	380
CC(=O)Nc1ccc(CN2CCC(NC(=O)c3ccc(-c4cccc(OC(C)C)c4)s3)CC2)cc1	1460
CN(C)CCC1CCN(CCS(=O)(=O)c2cccc(Nc3ncc(-c4cccc(F)c4)cn3)c2)CC1	1060
Cc1ccccc1CN1CCCN(Cc2ccc(C(=O)Nc3ccc(C(C)(C)C)cc3)cc2)CC1	860
Cc1cccc2[nH]c(-c3ccc(-c4ccc(NC(=O)c5cncn5C)cc4)s3)nc12	670
Cc1cc(N(C)C2CCN(CC3CCCCC3)C2)nc(Nc2ccc(Cl)cc2)n1 (stereo unspecified)	680
c1ccc(-c2nc(NCCCn3ccnc3)cc(-c3ccncc3)n2)cc1	170
O=C(/C=C/c1ccc(Cl)c(Cl)c1)N1CCC(CN2CCC(c3c(Br)[nH]c4ccccc34)CC2)CC1	290
COc1ccc(Cc2cnc(N)nc2N)cc1OCCCOc1ccccc1	910
Cc1cccc2c(C3CCN(CC4CCC(NC(=O)/C=C/c5ccc(Cl)c(Cl)c5)CC4)CC3)c[nH]c12 (stereo unspecified)	1030
CCC(CC(C)C(=O)O)=C(c1ccccc1)c1ccccc1 (stereo unspecified)	220
CCCn1c(Sc2ccc(C#N)c([N+](=O)[O-])c2)nnc1-c1ccc(Cl)cc1	540
O=C(Nc1ccc(C(=O)Oc2ccc(-c3ccccc3)cc2)cc1)N[C@@H](Cc1ccc(O)cc1)C(=O)NC1CCN(Cc2ccc(O)cc2)C1 (stereo partly specified)	800
O=C(Nc1cccc([N+](=O)[O-])c1)Nc1cccc(C(F)(F)F)c1	770
CCCCNC[C@@H](O)[C@H](Cc1ccccc1)NC(=O)c1cc2c3c(c1)c(CC)cn3CCS(=O)(=O)N2C	200
CCOc1cc(O)c(-c2nc(N)ncc2-c2ccc3c(c2)OCCO3)cc1CC	730
O=C(NCC1CCC(C(=O)NCCN2CCCCC2)CC1)c1ccc(O)c(-c2ccc(Cl)c(Cl)c2)c1 (stereo unspecified)	1170
O=C(NC1CCC(CN2CCC(c3c[nH]c4ccccc34)CC2)CC1)[C@H]1Cc2ccccc2CN1 (stereo partly specified)	950
Fc1ccc2nc(-c3cccc(-c4cccc(CNCC5CCCO5)c4)c3)[nH]c2c1 (stereo unspecified)	510
c1ccc(CCNCc2ccc(-c3ccc(CNCc4ccc5c(c4)OCO5)cc3)nc2)cc1	1250
CN(C)S(=O)(=O)n1ccc2c3c(N)nc(N)nc3ccc21	50
CN1CCCN(Cc2cccc(-c3cccc(NC(=O)c4cccc(Cl)c4)c3)c2)CC1	890
CN1C(=O)OC[C@@H]1Cc1ccc2[nH]cc(C3=CCN(Cc4ccccc4)CC3)c2c1	420

Compound	IC50 [nM]
N#Cc1ccc(N[C@@H](CC2CCCCC2)C(=O)NCc2cc(Cl)cc(Cl)c2)c2ccccc12	1100
O=C(NCc1ccc(F)cc1)Nc1cccc(-c2ccc(-c3nc4ccccc4[nH]3)cc2)c1	170
COc1cc(OC)cc(-c2nn(-c3ccc([N+](=O)[O-])cc3C#N)c(=S)n2CC2CCCO2)c1 (stereo unspecified)	850
O=c1cc(NCCCNC2CCCc3c2ccc2ccccc32)[nH]c2ccccc12 (stereo unspecified)	820
CCCCCCn1c2c(c(=N)c3c1CCC3)CCC2	180
CN(C)C(=O)c1ccc(CN(Cc2cccc(OC(C)(C)C)c2)Cc2ccc3c(c2)OCCO3)cc1	570
Cc1ccc(C)c2c1[nH]c1ccc(C3=NCCN3)cc12	500
CCN(CC)CCCNc1nccc(N(C)c2ccc(NC(=O)Nc3cc(C(F)(F)F)ccc3F)cc2)n1	1050
N=c1n(CCN2CCCCC2)c2ccccc2n1CC(O)c1cccc(Br)c1 (stereo unspecified)	1140
O=C(NCCN1CCCC1)c1cccc(-c2ccc(-c3nc4ccc(F)cc4[nH]3)cc2)c1	720
CCOC(=O)CCCCCNC[C@H](O)c1ccccc1	330
COc1ccc(NC(=O)/C=C/c2ccccc2Cl)cc1OCCN1CCC(N2CCN(C)CC2)CC1	490
Cc1ccc(NC(=O)c2cc(S(=O)(=O)NC(C)(C)C)ccc2C)nc1	760
CCc1c(CCNCCCC(C)CCNCCc2ccc(OC)c(OC)c2CC)ccc(OC)c1OC (stereo unspecified)	1110
Cc1ccc(O)c(CN2CCCC(COC(c3ccc(F)cc3)c3ccc(F)cc3)C2)c1 (stereo unspecified)	710
Nc1ncc(-c2cn[nH]c2)cc1-c1nc2ccc(Cl)cc2[nH]1	800
CCCCCCN1CCN(Cc2cccc(NC(=O)c3ccc(Cl)c(Cl)c3)c2)CC1	610
CC(C)(C)c1ccc(Cn2c(=N)n(CC(=O)c3ccc(-c4ccccc4)cc3)c3ccccc32)cc1	160
CCCCCCNC(=O)C(N)CCCC(N)C(=O)NCCCCCC (stereo unspecified)	160
Fc1cccc(Nc2nc(NCCc3ccc(Cl)cc3)nc(Nc3cccc(F)c3)n2)c1	1070
Cc1ccccc1CNc1ccc2nc(N)nc(N)c2c1	170
O=C(/C=C/C=C/c1ccccc1)NCCCCCN1CCC(c2c[nH]c3ccccc23)CC1	1170
O=C(/C=C/c1ccc(F)cc1)NC1CCC(CCN2CCCN(c3ccc(C(F)(F)F)cn3)CC2)CC1 (stereo unspecified)	1080
C=C[C@H]1CN(CCCCCCC)CC[C@H]1CC(=O)Nc1cnnc2ccc(OC)cc12	530

Compound	IC50 [nM]
Cc1cc(N[C@@H](CC(C)C)C(=O)NCCOc2ccccc2)nc(NCC2CCCCC2)n1	970
COc1ccc(CC(C)NCC(O)c2cccc(Cl)c2)cc1C (stereo unspecified)	900
O=C(NCCc1ccccc1)N(Cc1ccccc1-c1cccc(CNCc2ccc3c(c2)OCO3)c1)C1CCN(Cc2ccccc2)CC1	990
FC(F)(F)c1ccc2nc(-c3ccc(-c4ccc(CN5CCN(c6cnccn6)CC5)cc4)s3)[nH]c2c1	650
Cc1cc(C(F)(F)F)n2nc(C(=O)N(C)Cc3cncn3Cc3ccc(F)cc3)cc2n1	830
COc1cc(OC)cc(C(=O)Nc2cccc(-c3cn4ccc(C)cc4n3)c2)c1	990
Oc1ccc(C2CNCCc3c2cc(O)c(OCc2ccccc2)c3Cl)cc1 (stereo unspecified)	720
COC(=O)c1c(C#N)c(OC)cc(O)c1CSC[C@@H](CN1CCCCC1)Nc1nc(-c2ccc([N+](=O)[O-])cc2)cs1	1270
Cc1cc(Nc2ccc(C(C)(C)C)cc2)c2[nH]ncc2n1	1160
Cc1c(C)c2c(c(C)c1O)CC[C@](C)(C(=O)N1CCC(CCN3CCC(c4c[nH]c5ccccc45)CC3)CC1)O2	830
COc1ccccc1-n1c(SCC(=O)c2ccc3c(c2)CC(=O)N3C)nnc1-c1cccs1	960
Cc1cnc2cc3c(cc2c1N1CCN(C)CC1)NCC3	780
CN(C)c1cccc(-c2cnc3ccc(NCc4cccc(Cl)c4)nn23)c1	700
COc1nc2c(N3CCN(CCNCc4ccc5c(n4)NC(=O)CO5)CC3)ccnc2cc1F	760
Cn1cncc1C(=O)Nc1cccc(-c2ccc(-c3nc4ccc(F)cc4[nH]3)cc2)c1	730
O=C(Nc1ccccc1)Nc1cccc(-c2cccc(-c3nc4ccc(F)cc4[nH]3)c2)c1	180
Cc1cccc2[nH]c(-c3cccc(-c4cccc(NC(=O)c5cn(C)c(=O)n5C)c4)c3)nc12	500
O=C(Nc1ccccc1)Nc1cccc(-c2ccc(-c3nc4ccc(C(F)(F)F)cc4[nH]3)cc2)c1	230
COc1ccccc1NC(=O)c1cc(C(=O)c2cc(Cl)ccc2O)cn(-c2ccccc2OC)c1=O	940
CN1CCN(CC(=O)Nc2cccc(-c3ccc(-c4nc5ccc(C(F)(F)F)cc5[nH]4)cc3)c2)CC1	520
Cc1ccccc1CNc1noc(-c2sccc2Br)n1	380
Cc1nc2nc(N)nc(N)c2c(C)c1Cc1ccccc1I	350
Cc1[nH]c2ccc(O)cc2c1C1CCN(CC2CCC(NC(=O)/C=C/c3c(Cl)cccc3Cl)CC2)CC1 (stereo unspecified)	820
